Experimental data reported in US20190030018A1 (Celgene Corporation, priority 2017, published 2019).

Key:
Assay in all cases: In vitro combination studies, CellTitre-Glo cell viability
HL-60 = conditions: HL-60; in combination with Compound 1
OCT-AML-3 = conditions: OCI-AML-3; in combination with Compound 1
OCI-AML-2 = conditions: OCI-AML-2; in combination with Compound 1
KG-1 = conditions: KG-1; in combination with Compound 1
NOMO-1 = conditions: NOMO-1; in combination with Compound 1
ML-2 = conditions: ML-2; in combination with Compound 1
MOLM-13 = conditions: MOLM-13; in combination with Compound 1
F-36-P = conditions: F-36-P; in combination with Compound 1
HNT-34 = conditions: HNT-34; in combination with Compound 1
MV-4-11 = conditions: MV-4-11; in combination with Compound 1

Compound | Synergy analysis for combinations with Compound 1 (HL-60) | Synergy analysis for combinations with Compound 1 (OCT-AML-3) | Synergy analysis for combinations with Compound 1 (OCI-AML-2) | Synergy analysis for combinations with Compound 1 (KG-1) | Synergy analysis for combinations with Compound 1 (NOMO-1) | Synergy analysis for combinations with Compound 1 (ML-2) | Synergy analysis for combinations with Compound 1 (MOLM-13) | Synergy analysis for combinations with Compound 1 (F-36-P) | Synergy analysis for combinations with Compound 1 (HNT-34) | Synergy analysis for combinations with Compound 1 (MV-4-11)
COc1ccc(-c2c(-c3ccc(C#N)c(F)c3)nc(N3CCC(N)CC3)n(C)c2=O)cc1F [Compound B, 4-[2-(4-amino-piperidin-1-yl)-5-(3-fluoro-4-methoxy-phenyl)-1-methyl-6-oxo-1,6-dihydropyrimidin-4-yl]-2-fluoro-benzonitrile, reference compound] | No | No | No | No | No | No | Yes | Yes | No | No
C[C@H](NC(=O)Cc1cc(F)cc(F)c1)C(=O)N[C@@H]1C(=O)N(C)c2ccccc2-c2ccccc21 [YO-01027] | No | No | No | No | No | No | No | No | No | No
CC(C)C[C@H](NC(=O)[C@@H](NC(=O)c1cccc(-c2ccccc2)n1)[C@@H](C)O)B(O)O [CEP-18770] | No | No | No | No | No | No | No | No | No | No
chloro-N,N-diethyl-5-((4-(2-(4-(3-methylureido)phenyl)pyridin-4-yl)pyrimidin-2-yl)amino)benzenesulfonamide [compound Ii, reference compound] | No | Yes | Yes | No | Yes | No | Yes | Yes | No | Yes
CO[C@H]1CC[C@H](N2C(=O)CNc3ncc(-c4ccc(C(C)(C)O)nc4)nc32)CC1 [CC-223, 7-(6-(2-hydroxypropan-2-yl)pyridin-3-yl)-1-((trans)-4-methoxycyclohexyl)-3,4-dihydropyrazino[2,3-b]pyrazin-2(1H)-one, reference compound] | No | Yes | Yes | No | Yes | Yes | Yes | Yes | No | Yes
COC(=O)[C@H]1[C@@H](O)[C@@]2(O)c3c(OC)cc(O[C@@H]4O[C@@H]([C@H](O)CO)CO[C@H]4OC)cc3O[C@@]2(c2ccc(OC)cc2)[C@@H]1c1ccccc1 [Silvestrol] | No | No | No | No | No | No | No | No | No | No
CN(C)C(=N)N=C(N)N [Metformin] | No | No | No | No | No | No | No | No | No | No
